Read-outs that look alike come from different tables or passages of the source.
Columns and labels:
PC-3 = assay: MTT assay for cell cytotoxicity; assay type: cell-based, human; conditions: 72 h, at least three independent experiments, read-out: MTT assay (IC50 ± SD) PC-3
Protocol: (§1) All of synthesis compounds were evaluated cell cytotoxicity by using MTT colorimetric assay on PC-3 and DU-145 cell lines. DU-145 and PC-3 are human hormone-refractory (androgen-independent) prostatic cancer cell lines from American Type Culture Collection (HTB-81™, ATCC, Rockville, MD)^125 and Bioresource Collection and Research Center (60122, BCRC, Taiwan)^126, respectively. Two of the "classical" cell lines were cultivated in RPMI-1640 medium supplemented with 5% fetal bovine serum (v/v), 100 U/mL penicillin, and […] streptomycin. Approximately 2 x 10^3 cells were seeded into each well of a 96-well plate and incubated in 5% CO2 at 37 °C for 24 h. To evaluate the in vitro cytotoxicity, all the synthetic compounds were dissolved in DMSO, prepared immediately before the experiments and diluted into the complete medium before being added to each well of a 96-well plate. Each compound was then added to the culture medium for designated various concentrations (0.15, 0.5, 1.5, 5, 15 µM). After 72 h, an amount of 100 µL of MTT (1 mg/mL) was added to each well, and the samples were incubated at 37 °C for 4 h. After removing the MTT solution, 100 µL of DMSO was added to each well and incubated at 37 °C for another 20 mins. The absorbency at 560 nm was measured by using an ELISA reader.
(§2) Results are expressed as mean values of at least three independent experiments. The IC50 values of testing compounds were described in Table 1. Table1. Effects of 10-Chloro-12H-thiochromeno[2,3-c]quinolin -12-one derivatives on cytotoxicity by MTT assay.

DU-145 = assay: MTT assay for cell cytotoxicity; assay type: cell-based, human; conditions: 72 h, at least three independent experiments, read-out: MTT assay (IC50 ± SD) DU-145
Protocol: as §1, §2

Row | Compound | IC50 (PC-3; Homo sapiens) | IC50 (DU-145; Homo sapiens) | IC50 (PC-3) | IC50 (DU-145)
1 | CCN1CCN(c2nc3ccccc3c3c(=O)c4cc(Cl)ccc4sc23)CC1 [Compound 9, 10-Chloro-6-(4-ethylpiperazin-1-yl)-12H-thiochromeno[2,3-c]q uinolin-12-one] | 12 ± 3.41 µM | > 15 µM |  | 
2 | CCCNc1nc2ccccc2c2c(=O)c3cc(Cl)ccc3sc12 [Compound N3, 10-Chloro-6 propylamino-12H-thiochromeno[2,3-c]quinolin-1 2-one] | 7.41 ± 3.43 µM | 7.64 ± 2.74 µM |  | 
3 | COc1ccccc1CNc1nc2ccccc2c2c(=O)c3cc(Cl)ccc3sc12 [Compound N28, 10-Chloro-6-((2-methoxybenzyl)amino)-12H-thiochromeno[2,3-c]quinolin-12-one] | 6.01 ± 3.31 µM | 9.61 ± 4.88 µM |  | 
4 | CNc1nc2ccccc2c2c(=O)c3cc(Cl)ccc3sc12 [Compound N1, 10-Chloro-6-methylamino-12H-thiochromeno[2,3-c]quinolin-12-one] | 14.5 ± 2.7 µM | 11.7 ± 5.15 µM |  | 
5 | O=c1c2cc(Cl)ccc2sc2c(N3CCSCC3)nc3ccccc3c12 [Compound 14, 10-Chloro-6-thiomorpholino-12H thiochromeno[2,3-c]quinolin-12-one] | > 15 µM | > 15 µM |  | 
6 | O=c1c2cc(Cl)ccc2sc2c(NC3CCN(Cc4ccccc4)CC3)nc3ccccc3c12 [Compound N22, 6-((1-Benzylpiperidin-4-yl)amino)-10-chloro-12H-thiochromen o[2,3-c]quinolin-12-one] | 6.47 ± 0.3 µM | 8.39 ± 1.84 µM |  | 
7 | O=C1CCCCN1c1nc2ccccc2c2c(=O)c3cc(Cl)ccc3sc12 [Compound 21, 10-chloro-6-(2-oxopiperidin-1-yl)-12H-thiochromeno[2,3-c]quin olin-12-one] | 9.55 ± 2.42 µM | 11.1 ± 4.18 µM |  | 
8 | CC(C)CNc1nc2ccccc2c2c(=O)c3cc(Cl)ccc3sc12 [Compound N5, 10-Chloro-6-isobutylamino-12H-thiochromeno[2,3-c]quinolin-12-one] | > 15 µM | > 15 µM |  | 
9 | O=c1c2cc(Cl)ccc2sc2c(NC3Cc4ccccc4C3)nc3ccccc3c12 [Compound N20, 10-Chloro-6-((2,3-dihydro-1H-inden-2-yl)amino)-12H-thiochro meno[2,3-c]quinolin-12-one] | 6.2 ± 2.52 µM | 4.86 ± 0.99 µM |  | 
10 | CCC(CO)Nc1nc2ccccc2c2c(=O)c3cc(Cl)ccc3sc12 (stereo not drawn) [Compound N12, 10-Chloro-6-((1-hydroxybutan-2yl)amino)-12H-thiochromeno[2,3-c]quinolin-12-one] | 7.05 ± 2.48 µM | 6.74 ± 2.14 µM |  | 
11 | COc1ccc(CCNc2nc3ccccc3c3c(=O)c4cc(Cl)ccc4sc23)cc1 [Compound N31, 10-Chloro-6-((4-methoxyphenethyl)amino)-12H-thiochromeno[2,3-c]quinolin-12-one] | > 15 µM | > 15 µM |  | 
12 | CCCCNc1nc2ccccc2c2c(=O)c3cc(Cl)ccc3sc12 [Compound N4, 6-(Butylamino)-10-chloro-12H-thiochromeno[2,3-c]quinolin-1 2-one] | 10.1 ± 1.32 µM | 10.3 ± 2.46 µM |  | 
13 | O=c1c2cc(Cl)ccc2sc2c(NCC3CCCCC3)nc3ccccc3c12 [Compound N24, 10-Chloro-6-((cyclohexylmethyl)amino)-12H-thiochromeno[2,3-c]quinolin-12-one] | 14.8 ± 3.26 µM | 13.6 ± 3.88 µM |  | 
14 | O=c1c2cc(Cl)ccc2sc2c(NCCO)nc3ccccc3c12 [Compound N9, 10-Chloro-6-(2-ethanolamino)-12H-thiochromeno[2,3-c]quinol in-12-one] |  |  | 7.48 ± 3.35 µM | 11.6 ± 7.23 µM
15 | CC(C)CC(C)Nc1nc2ccccc2c2c(=O)c3cc(Cl)ccc3sc12 (stereo not drawn) [Compound N13, 10-Chloro-6-((4-methylpentan-2yl)amino)-12H-thiochromeno[2,3-c]quinolin-12-one] | 10.4 ± 2.3 µM | 14.2 ± 1.18 µM |  | 
16 | COc1cc([C@@H]2c3cc4c(cc3[C@@H](O[C@@H]3O[C@@H]5CO[C@@H](C)O[C@H]5[C@H](O)[C@H]3O)[C@H]3COC(=O)[C@H]23)OCO4)cc(OC)c1O [Etoposide (VP-16), Etoposide, reference compound] | 4.33 ± 0.86 µM | 0.4 ± 0.01 µM |  | 
17 | O=c1c2cc(Cl)ccc2sc2c(NC3CCCCC3)nc3ccccc3c12 [Compound N21, 10-Chloro-6-(cyclohexylamino)-12H-thiochromeno[2,3-c]quino lin-12-one] | 7.51 ± 0.22 µM | 8.06 ± 2.08 µM |  | 
18 | Nc1ccc(CCNc2nc3ccccc3c3c(=O)c4cc(Cl)ccc4sc23)cc1 [Compound N32, 6-((4-Aminophenethyl)amino)-10-chloro-12H-thiochromeno[2,3-c]quinolin-12-one] | 10.1 ± 0.94 µM | 13.6 ± 1.39 µM |  | 

Row | Compound | IC50 (PC-3; Homo sapiens) | IC50 (DU-145; Homo sapiens) | IC50 (PC-3) | IC50 (DU-145)
19 | O=c1c2cc(Cl)ccc2sc2c(N3CCC(O)CC3)nc3ccccc3c12 [Compound 16, 10-Chloro-6-(4-hydroxypiperidin-1-yl)-12H-thiochromeno[2,3-c]quinolin-12-one] | 9.55 ± 2.42 µM | 11.1 ± 4.18 µM |  | 
20 | O=c1c2cc(Cl)ccc2sc2c(NCCCO)nc3ccccc3c12 [Compound N10, 10-Chloro-6-(3-propanolamino)-12H-thiochromeno[2,3-c]quin olin-12-one] |  |  | 6.31 ± 4.11 µM | 5.94 ± 2.03 µM
21 | O=c1c2cc(Cl)ccc2sc2c(NCc3ccccn3)nc3ccccc3c12 [Compound N26, 10-Chloro-6-((pyridin-2-ylmethyl)amino)-12H-thiochromeno[2,3-c]quinolin-12-one] | 14.2 ± 2.22 µM | 14.8 ± 1.99 µM |  | 
22 | O=c1c2cc(Cl)ccc2sc2c(NN3CCCCC3)nc3ccccc3c12 [Compound N34, 10-Chloro-6-(piperidin-1-ylamino)-12H-thiochromeno[2,3-c]qu inolin-12-one] | 8.22 ± 1.02 µM | 9.06 ± 1.95 µM |  | 
23 | COc1ccc(CNc2nc3ccccc3c3c(=O)c4cc(Cl)ccc4sc23)cc1OC [Compound N29, 10-Chloro-6-((3,4-dimethoxybenzyl)amino)-12H-thiochromeno [2,3-c]quinolin-12-one] | 6.2 ± 2.52 µM | 4.86 ± 0.99 µM |  | 
24 | CC[C@@]1(O)C(=O)OCc2c1cc1n(c2=O)Cc2cc3ccccc3nc2-1 [Camptothecin, reference compound] | 0.1 ± 0.01 µM | 0.1 ± 0.01 µM |  | 
25 | O=c1c2cc(Cl)ccc2sc2c(N3CCC(CCCC4CCNCC4)CC3)nc3ccccc3c12 [Compound 19, 10-Chloro-6-(4-(3-(piperidin-4-yl)propyl)piperidin-1yl)-12H-thi ochromeno[2,3-c]quinolin-12-one] | 6.36 ± 0.17 µM | 9.02 ± 1.2 µM |  | 
26 | O=c1c2cc(Cl)ccc2sc2c(N3CCC(N4CCCCC4)CC3)nc3ccccc3c12 [Compound 18, 6-([1,4'-Bipiperidin]-1'-yl)-10-chloro-12H-thiochromeno[2,3-c]q uinolin-12-one] | 14.2 ± 1.41 µM | 10.2 ± 2.03 µM |  | 
27 | O=c1c2cc(Cl)ccc2sc2c(N3CCCCC3)nc3ccccc3c12 [Compound 15, 10-Chloro-6-(piperidin-1-yl)-12H-thiochromeno[2,3-c]quinolin-12-one] | > 15 µM | 13.4 ± 2.87 µM |  | 
28 | CCC(CC)Nc1nc2ccccc2c2c(=O)c3cc(Cl)ccc3sc12 [Compound N6, 10-Chloro-6-(pentan-3-ylamino)-12H-thiochromeno[2,3-c]quin olin-12-one] | > 15 µM | > 15 µM |  | 
29 | NC(N)=Nc1nc2ccccc2c2c(=O)c3cc(Cl)ccc3sc12 [Compound N33, 2-(10-Chloro-12-oxo-12H-thiochromeno[2,3-c]quinolin-6-yl)gu anidine] | 6.13 ± 6.98 µM | 8.11 ± 1.37 µM |  | 
30 | O=c1c2cc(Cl)ccc2sc2c(N3CCC(Cc4ccccc4)CC3)nc3ccccc3c12 [Compound 17, 6-(4-Benzylpiperidin-1-yl)-10-chloro-12H-thiochromeno[2,3-c]q uinolin-12-one] | > 15 µM | > 15 µM |  | 
31 | O=c1c2cc(Cl)ccc2sc2c(NCCN3CCOCC3)nc3ccccc3c12 [Compound N16, 10-Chloro-6-((2-morpholinoethyl)amino)-12H-thiochromeno[2,3-c]quinolin-12-one] | > 15 µM | > 15 µM |  | 
32 | CCNc1nc2ccccc2c2c(=O)c3cc(Cl)ccc3sc12 [Compound N2, 10-Chloro-6-ethylamino-12H-thiochromeno[2,3-c]quinolin-12-one] | 5.18 ± 2.2 µM | 6.7 ± 1.62 µM |  | 
33 | O=c1c2cc(Cl)ccc2sc2c(NCCc3ccccc3)nc3ccccc3c12 [Compound N30, 10-Chloro-6-(phenethylamino)-12H-thiochromeno[2,3-c]quinol in-12-one] | > 15 µM | > 15 µM |  | 
34 | O=c1c2cc(Cl)ccc2sc2c(NCCCCCO)nc3ccccc3c12 [Compound N11, 10-Chloro-6-(5-pentanolamino)-12H-thiochromeno[2,3-c]quin olin-12-one] |  |  | 8.38 ± 3.39 µM | 4.95 ± 0.58 µM
35 | COc1cccc2c1C(=O)c1c(O)c3c(c(O)c1C2=O)C[C@@](O)(C(=O)CO)C[C@@H]3O[C@H]1C[C@H](N)[C@H](O)[C@H](C)O1 [Doxorubicin, reference compound] |  | 0.12 ± 0.03 µM |  | 
